One experiment addresses HDAC1 (Homo sapiens (Human), UniProt Q13547). As to conditions: read-out: HDAC1 IC50.
In the next experiment the target is HDAC8 (Homo sapiens (Human), UniProt Q9BY41). The note with it: read-out: HDAC8 IC50.
A further experiment deals with HDAC5 (Homo sapiens (Human), UniProt Q9UQL6). The note with it: read-out: HDAC5 IC50.
HDAC5, sequence (Q9UQL6 656-1122): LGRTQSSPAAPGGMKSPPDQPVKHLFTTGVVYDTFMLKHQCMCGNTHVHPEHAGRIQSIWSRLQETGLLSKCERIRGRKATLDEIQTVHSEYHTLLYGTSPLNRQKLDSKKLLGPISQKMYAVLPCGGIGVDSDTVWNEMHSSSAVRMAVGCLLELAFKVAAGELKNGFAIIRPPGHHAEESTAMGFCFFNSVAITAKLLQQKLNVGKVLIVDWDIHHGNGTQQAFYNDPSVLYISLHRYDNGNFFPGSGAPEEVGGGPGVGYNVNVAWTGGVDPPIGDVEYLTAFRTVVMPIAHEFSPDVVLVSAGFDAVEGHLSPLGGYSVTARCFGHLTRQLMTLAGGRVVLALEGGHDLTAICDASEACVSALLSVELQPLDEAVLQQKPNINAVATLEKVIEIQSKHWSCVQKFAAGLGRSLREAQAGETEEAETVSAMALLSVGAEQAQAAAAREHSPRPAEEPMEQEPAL

HDAC8, sequence (Q9BY41 whole entry): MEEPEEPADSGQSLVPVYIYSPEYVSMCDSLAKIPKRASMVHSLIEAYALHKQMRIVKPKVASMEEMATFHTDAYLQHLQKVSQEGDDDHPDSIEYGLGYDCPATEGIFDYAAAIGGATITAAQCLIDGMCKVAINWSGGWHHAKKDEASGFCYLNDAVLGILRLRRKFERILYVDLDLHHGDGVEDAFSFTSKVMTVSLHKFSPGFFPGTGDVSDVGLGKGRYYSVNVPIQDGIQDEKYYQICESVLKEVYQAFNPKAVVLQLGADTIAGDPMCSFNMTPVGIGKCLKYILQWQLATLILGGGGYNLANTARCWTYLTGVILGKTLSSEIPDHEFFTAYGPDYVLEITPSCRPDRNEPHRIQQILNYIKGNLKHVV
HDAC1, sequence (Q13547 whole entry): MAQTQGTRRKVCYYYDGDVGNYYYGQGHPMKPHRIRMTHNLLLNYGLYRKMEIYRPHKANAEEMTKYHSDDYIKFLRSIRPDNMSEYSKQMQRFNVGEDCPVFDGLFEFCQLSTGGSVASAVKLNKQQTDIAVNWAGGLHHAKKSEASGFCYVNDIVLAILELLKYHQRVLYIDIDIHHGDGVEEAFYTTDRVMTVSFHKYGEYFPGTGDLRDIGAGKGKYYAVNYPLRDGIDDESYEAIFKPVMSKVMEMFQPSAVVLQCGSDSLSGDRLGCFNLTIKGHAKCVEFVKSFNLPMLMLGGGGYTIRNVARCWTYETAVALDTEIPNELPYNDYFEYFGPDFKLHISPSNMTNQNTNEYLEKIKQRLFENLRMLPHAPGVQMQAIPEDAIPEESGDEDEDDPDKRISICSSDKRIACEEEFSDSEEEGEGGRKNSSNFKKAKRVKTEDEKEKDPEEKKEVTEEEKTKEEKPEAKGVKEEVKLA

A word on the IC50: it is the midpoint of a concentration-inhibition curve. On to `Cc1nc(Cl)cnc1COc1ccc(-c2noc(C(F)(F)F)n2)cn1` [Example 184, 3-(6-((5-Chloro-3-methylpyrazin-2-yl)methoxy)pyridin-3-yl)-5-(trifluoromethyl)-1,2,4-oxadiazole], for which the half-inhibitory concentration (IC50) turned out to be 2300 nM at HDAC1, 2700 nM on HDAC8 and 1100 nM on HDAC5.

`Cc1cc(C)nc(COc2nccc(-c3noc(C(F)(F)F)n3)c2Cl)n1` [Example 186, 3-(3-Chloro-2-((4,6-dimethylpyrimidin-2-yl)methoxy)pyridin-4-yl)-5-(trifluoromethyl)-1,2,4-oxadiazole]: the IC50 on HDAC1 was 8100 nM; on HDAC8 it was 3900 nM; at HDAC5, 850 nM.

Take `Fc1c(-c2noc(C(F)(F)F)n2)ccnc1OCc1nc(C2CC2)no1` [Example 187, 3-Cyclopropyl-5-(((3-fluoro-4-(5-(trifluoromethyl)-1,2,4-oxadiazol-3-yl)pyridin-2-yl)oxy)methyl)-1,2,4-oxadiazole]: the IC50 on HDAC1 stood at 1500 nM; at HDAC8, 1500 nM; on HDAC5, 220 nM.

Regarding `O=C(COc1cc(-c2noc(C(F)(F)F)n2)ccn1)N1CCOCC1` [Example 190, 1-Morpholino-2-((4-(5-(trifluoromethyl)-1,2,4-oxadiazol-3-yl)pyridin-2-yl)oxy)ethan-1-one], the IC50 worked out at 2200 nM at HDAC1, 1100 nM on HDAC8 and 550 nM on HDAC5.

As to `O=C(NCc1ccc(-c2noc(C(F)(F)F)n2)cc1)C1CCCC1` [Example 191, N-(4-(5-(Trifluoromethyl)-1,2,4-oxadiazol-3-yl)benzyl)cyclopentanecarboxamide], the IC50 at HDAC1 came out at 2200 nM; at HDAC8, 2900 nM; on HDAC5 it was 940 nM.

On to `CC(C)NC(=O)OCc1ccc(-c2noc(C(F)(F)F)n2)cn1` [Example 192, (5-(5-(Trifluoromethyl)-1,2,4-oxadiazol-3-yl)pyridin-2-yl)methyl isopropylcarbamate], for which the concentration for half-maximal inhibition (IC50) at HDAC1 is 660 nM; on HDAC8, 1800 nM; on HDAC5 it was 640 nM.

For the molecule `CNC(=O)OCc1ccc(-c2noc(C(F)(F)F)n2)cn1` [Example 194, {5-[5-(trifluoromethyl)-1,2,4-oxadiazol-3-yl]pyridin-2-yl}methyl methylcarbamate], the concentration for half-maximal inhibition (IC50) on HDAC1 was 1700 nM; at HDAC8, 1300 nM; at HDAC5, 610 nM.

On to `O=C(NC1CCOCC1)OCc1ccc(-c2noc(C(F)(F)F)n2)cn1` [Example 195, {5-[5-(trifluoromethyl)-1,2,4-oxadiazol-3-yl]pyridin-2-yl}methyl oxan-4-ylcarbamate], for which the IC50 on HDAC1 worked out at 780 nM; on HDAC8, 1600 nM; on HDAC5, 660 nM.

Turning to `CN(C(=O)[C@@H]1COCC(=O)N1c1ccc(-c2noc(C(F)(F)F)n2)c(F)c1)C(C)(C)C` [Example 196, (3S)-N-tert-butyl-4-{3-fluoro-4-[5-(trifluoromethyl)-1,2,4-oxadiazol-3-yl]phenyl}-N-methyl-5-oxomorpholine-3-carboxamide], the IC50 amounted to 6900 nM at HDAC1, 6300 nM at HDAC8 and 300 nM on HDAC5.

For `O=C(OCCOCCCl)[C@@H]1CCC(=O)N1c1ccc(-c2noc(C(F)(F)F)n2)c(F)c1` [Example 197, 2-(2-chloroethoxy)ethyl 1-{3-fluoro-4-[5-(trifluoromethyl)-1,2,4-oxadiazol-3-yl]phenyl}-5-oxo-L-prolinate], the IC50 at HDAC1 stood at 1200 nM; on HDAC8, 110 nM; on HDAC5 it was 50 nM.

For `COC(=O)N1CCC(C(=O)N(Cc2ccc(-c3noc(C(F)(F)F)n3)cn2)c2cccc(C(F)(F)F)c2)CC1` [Example 198, methyl 4-{({5-[5-(trifluoromethyl)-1,2,4-oxadiazol-3-yl]pyridin-2-yl}methyl)[3-(trifluoromethyl)phenyl]carbamoyl}piperidine-1-carboxylate], the half-inhibitory concentration (IC50) at HDAC1 stood at 480 nM; on HDAC8, 1300 nM; at HDAC5 it was 650 nM.

`FC(F)(F)c1nc(-c2ccnc(OCc3nc4ccccc4[nH]3)c2)no1` [Example 200, 2-[({4-[5-(trifluoromethyl)-1,2,4-oxadiazol-3-yl]pyridin-2-yl}oxy)methyl]-1H-benzimidazole]: the half-maximal inhibitory concentration (IC50) on HDAC1 came out at 450 nM; at HDAC8, 970 nM; on HDAC5 it was 460 nM.

Consider `O=C(C1CCS(=O)(=O)CC1)N(Cc1ccc(-c2noc(C(F)(F)F)n2)cn1)c1ccccc1C(F)(F)F` [Example 201, 1,1-dioxo-N-({5-[5-(trifluoromethyl)-1,2,4-oxadiazol-3-yl]pyridin-2-yl}methyl)-N-[2-(trifluoromethyl)phenyl]-llambda~6~-thiane-4-carboxamide], for which the IC50 on HDAC1 is 4000 nM; on HDAC8, 9200 nM; at HDAC5, 1400 nM.

Regarding `Cc1ccncc1COc1ccc(-c2noc(C(F)(F)F)n2)cn1` [Example 202, 2-[(4-methylpyridin-3-yl)methoxy]-5-[5-(trifluoromethyl)-1,2,4-oxadiazol-3-yl]pyridine], the concentration for half-maximal inhibition (IC50) came out at 2200 nM at HDAC1, 900 nM at HDAC8 and 730 nM at HDAC5.

With `Fc1cc(COc2cccc3[nH]nnc23)ccc1-c1noc(C(F)(F)F)n1` [Example 227, 4-({3-fluoro-4-[5-(trifluoromethyl)-1,2,4-oxadiazol-3-yl]phenyl}methoxy)-1H-benzotriazole], the IC50 at HDAC1 was 1500 nM; on HDAC8, 730 nM; at HDAC5, 65 nM.

With `Fc1cc(COc2nncc3ccccc23)ccc1-c1noc(C(F)(F)F)n1` [Example 228, 1-({3-fluoro-4-[5-(trifluoromethyl)-1,2,4-oxadiazol-3-yl]phenyl}methoxy)phthalazine], the IC50 on HDAC1 came out at 4300 nM; at HDAC8, 2000 nM; at HDAC5, 140 nM.

Turning to `Cn1nccc1OCc1ccc(-c2noc(C(F)(F)F)n2)c(F)c1` [Example 229, 3-(2-fluoro-4-{[(1-methyl-1H-pyrazol-5-yl)oxy]methyl}phenyl)-5-(trifluoromethyl)-1,2,4-oxadiazole], the IC50 at HDAC1 came out at 3700 nM; on HDAC8 it was 4800 nM; on HDAC5, 140 nM.

In the case of `Fc1cnc(OCc2ccc(-c3noc(C(F)(F)F)n3)c(F)c2)nc1` [Example 230, 5-fluoro-2-({3-fluoro-4-[5-(trifluoromethyl)-1,2,4-oxadiazol-3-yl]phenyl}methoxy)pyrimidine], the 50% inhibitory concentration (IC50) at HDAC1 was found to be 8500 nM; on HDAC8, 540 nM; on HDAC5 it was 200 nM.

With `O=C1NCCc2c(OCc3ccc(-c4noc(C(F)(F)F)n4)c(F)c3)cccc21` [Example 231, 5-({3-fluoro-4-[5-(trifluoromethyl)-1,2,4-oxadiazol-3-yl]phenyl}methoxy)-3,4-dihydroisoquinolin-1(2H)-one], the half-maximal inhibitory concentration (IC50) was 6900 nM on HDAC1, 45000 nM on HDAC8 and 110 nM on HDAC5.

For `Fc1cc(COc2cc[nH]n2)ccc1-c1noc(C(F)(F)F)n1` [Example 232, 3-(2-fluoro-4-{[(1H-pyrazol-3-yl)oxy]methyl}phenyl)-5-(trifluoromethyl)-1,2,4-oxadiazole], the IC50 on HDAC1 turned out to be 3000 nM; on HDAC8, 1300 nM; on HDAC5 it was 67 nM.

Consider `Cn1cccc(OCc2ccc(-c3noc(C(F)(F)F)n3)c(F)c2)c1=O` [Example 233, 3-({3-fluoro-4-[5-(trifluoromethyl)-1,2,4-oxadiazol-3-yl]phenyl}methoxy)-1-methylpyridin-2(1H)-one], for which the half-maximal inhibitory concentration (IC50) at HDAC1 came out at 1600 nM; on HDAC8, 2200 nM; on HDAC5, 170 nM.

As to `Fc1cc(COc2ccc3cnccc3n2)ccc1-c1noc(C(F)(F)F)n1` [Example 234, 2-({3-fluoro-4-[5-(trifluoromethyl)-1,2,4-oxadiazol-3-yl]phenyl}methoxy)-1,6-naphthyridine], the values for the half-inhibitory concentration (IC50) on HDAC1, at HDAC8 and on HDAC5 were 370 nM, 640 nM and 8.4 nM, respectively.

Turning to `Fc1cc(COc2cncnc2)ccc1-c1noc(C(F)(F)F)n1` [Example 236, 5-({3-fluoro-4-[5-(trifluoromethyl)-1,2,4-oxadiazol-3-yl]phenyl}methoxy)pyrimidine], the half-inhibitory concentration (IC50) at HDAC1 came to 3100 nM; at HDAC8 it was 2100 nM; on HDAC5 it was 42 nM.

On to `Cc1cc(OCc2ccc(-c3noc(C(F)(F)F)n3)c(F)c2)cc(C)n1` [Example 237, 4-({3-fluoro-4-[5-(trifluoromethyl)-1,2,4-oxadiazol-3-yl]phenyl}methoxy)-2,6-dimethylpyridine], for which the IC50 stood at 1800 nM at HDAC1, 5300 nM on HDAC8 and 230 nM at HDAC5.

For `COc1cnnc(OCc2ccc(-c3noc(C(F)(F)F)n3)c(F)c2)c1` [Example 239, 3-({3-fluoro-4-[5-(trifluoromethyl)-1,2,4-oxadiazol-3-yl]phenyl}methoxy)-5-methoxypyridazine], the concentration for half-maximal inhibition (IC50) at HDAC1 was 5900 nM; at HDAC8, 2400 nM; at HDAC5 it was 190 nM.

Consider `Fc1cc(COc2ccc3ncnn3c2)ccc1-c1noc(C(F)(F)F)n1` [Example 240, 6-({3-fluoro-4-[5-(trifluoromethyl)-1,2,4-oxadiazol-3-yl]phenyl}methoxy)[1,2,4]triazolo[1,5-a]pyridine], for which the values for the IC50 at HDAC1, at HDAC8 and at HDAC5 were 1500 nM, 11000 nM and 78 nM, respectively.

As to `Cc1nccc(OCc2ccc(-c3noc(C(F)(F)F)n3)c(F)c2)n1` [Example 241, 4-({3-fluoro-4-[5-(trifluoromethyl)-1,2,4-oxadiazol-3-yl]phenyl}methoxy)-2-methylpyrimidine], the half-inhibitory concentration (IC50) at HDAC1 was 3200 nM; at HDAC8, 3000 nM; at HDAC5 it was 48 nM.

With `Fc1cc(COc2cc(C(F)F)ncn2)ccc1-c1noc(C(F)(F)F)n1` [Example 242, 4-(difluoromethyl)-6-({3-fluoro-4-[5-(trifluoromethyl)-1,2,4-oxadiazol-3-yl]phenyl}methoxy)pyrimidine], the IC50 on HDAC1 was 2900 nM; on HDAC8 it was 1700 nM; at HDAC5, 110 nM.
